Like-named read-outs stand apart in the source and are kept apart here.
How the values were obtained:
[1] = target: T1, serotonin transporter (Rattus norvegicus, UniProt P31652); assay: 5-HT transporter affinity: displacement of 3H-paroxetine from male rat cortical membranes; type: binding; details: displacement of 3H-paroxetine, male rat cortical membranes
T1 construct: displace ^3H-paroxetine from male rat cortical membranes; from tissue; host or cells: male rat cortical membranes

[2] = target: T2, cloned human 5-HT1A receptors (Homo sapiens, UniProt P08908); assay: 35S-GTPγS binding assay, 5-HT1A function; type: biochemical; details: for EC50: agonist potency; for IC50: antagonist potency, reversal of 8-OH-DPAT
T2 construct: expressed in transfected cells
T2 sequence (P08908 1-422): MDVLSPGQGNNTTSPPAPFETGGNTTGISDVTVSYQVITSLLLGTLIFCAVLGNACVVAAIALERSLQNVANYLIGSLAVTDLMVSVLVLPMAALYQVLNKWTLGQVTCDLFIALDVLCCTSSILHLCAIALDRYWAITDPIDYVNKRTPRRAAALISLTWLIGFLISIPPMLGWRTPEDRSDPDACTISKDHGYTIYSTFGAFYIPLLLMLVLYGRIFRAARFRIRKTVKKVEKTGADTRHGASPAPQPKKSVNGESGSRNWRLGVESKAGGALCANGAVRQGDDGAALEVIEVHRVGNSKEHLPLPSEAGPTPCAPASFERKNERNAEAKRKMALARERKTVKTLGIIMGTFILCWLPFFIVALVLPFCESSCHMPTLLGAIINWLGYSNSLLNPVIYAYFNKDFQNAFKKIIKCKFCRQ

[3] = target: T3, 5-HT1A receptor (Homo sapiens, UniProt P08908); assay: cAMP accumulation assay, 5-HT1A function; type: cell-based; details: for EC50: cells marked EC50 (agonist); for IC50: cells marked IC50 (antagonist)
T3 sequence (P08908 1-422): T2 sequence (P08908 1-422)

[4] = target: T3, 5-HT1A receptor; assay: 5-HT1A receptor affinity: displacement of [3H] 8-OH-DPAT; type: binding; parameters: expressed in transfected cells; details: displacement of [3H] 8-OH-DPAT, CHO cells stably transfected with human 5-HT1A receptors
[5] = read-out: 5-HT Transporter Affinity Ki
[6] = maximum stimulatory effect, in brackets after EC50, read-out: 5-HT1A Function GTPγS (Emax)
[7] = in brackets after EC50 or IC50, read-out: 5-HT1A Function cAMP (Emax)
[8] = read-out: 5-HT1A Receptor Affinity Ki
[9] = read-out: 5-HT1A Function GTPγS IC50
[10] = maximum inhibitory effect, in brackets after IC50, read-out: 5-HT1A Function GTPγS (Imax)
[11] = read-out: 5-HT1A Function cAMP IC50

T1 sequence (P31652 whole entry): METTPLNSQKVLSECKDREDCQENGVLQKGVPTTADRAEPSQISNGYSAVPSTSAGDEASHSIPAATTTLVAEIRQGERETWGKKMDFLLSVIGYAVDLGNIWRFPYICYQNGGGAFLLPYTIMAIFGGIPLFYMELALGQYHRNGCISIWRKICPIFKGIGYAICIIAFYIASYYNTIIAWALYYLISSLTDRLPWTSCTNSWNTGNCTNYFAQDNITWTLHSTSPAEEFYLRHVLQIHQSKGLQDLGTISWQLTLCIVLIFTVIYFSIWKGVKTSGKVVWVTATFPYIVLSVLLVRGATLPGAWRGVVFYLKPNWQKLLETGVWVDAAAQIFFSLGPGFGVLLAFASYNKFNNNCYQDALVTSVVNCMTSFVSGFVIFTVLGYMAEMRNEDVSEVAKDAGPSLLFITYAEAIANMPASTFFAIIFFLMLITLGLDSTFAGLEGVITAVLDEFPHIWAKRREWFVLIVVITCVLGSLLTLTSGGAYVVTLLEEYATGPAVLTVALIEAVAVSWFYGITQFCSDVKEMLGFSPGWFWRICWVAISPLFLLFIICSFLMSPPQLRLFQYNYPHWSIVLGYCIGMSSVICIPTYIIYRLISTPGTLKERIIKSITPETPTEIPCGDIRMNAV

EC50 [2]	Emax [2, 6]	EC50 [3]	SMILES	Ki [1, 5]	Emax [3, 7]	Ki [4, 8]	IC50 [2, 9]	Emax [2, 10]	IC50 [3, 11]	Emax ([3]; read-out: 5-HT1A Function cAMP (Emax), in brackets after EC50 or IC50)	Ki ([1]; 5-HT Transporter Affinity Ki (nM))	IC50 ([2]; 5-HT1A Function GTPγS IC50 (nM))	IC50 ([3]; 5-HT1A Function cAMP IC50 (nM))	Ki ([4]; 5-HT1A Receptor Affinity Ki (nM))
247 nM	89%	87.1 nM	COC(=O)c1ccc(F)c2c1CC(NCCCCc1c[nH]c3ccc(F)cc13)CO2 (stereo not shown) [Compound 57, Methyl 8-fluoro-3-{[4-(5-fluoro-1H-indol-3-yl)butyl]amino}chromane-5-carboxylate]	4.69 nM	91.5%	14.1 nM	–	–	–	–	–	–	–	–
1750 nM	96%	337 nM	COC(=O)c1ccc(F)c2c1C[C@H](NCCCCc1c[nH]c3ccc(F)cc13)CO2 [Compound 57a, Methyl (3S)-8-fluoro-3-{[4-(5-fluoro-1H-indol-3-yl)butyl]amino}chromane-5-carboxylate]	4.21 nM	81%	113 nM	–	–	–	–	–	–	–	–
641 nM	100%	180 nM	COC(=O)c1ccc(F)c2c1C[C@@H](NCCCCc1c[nH]c3ccc(F)cc13)CO2 [Compound 57b, methyl (3R)-8-fluoro-3-{[4-(5-fluoro-1H-indol-3-yl)butyl]amino}chromane-5-carboxylate]	12.2 nM	93%	19.4 nM	–	–	–	–	–	–	–	–
–	–	–	CNC(=O)c1ccc(F)c2c1CC(N(CCCc1c[nH]c3ccc(F)cc13)C1CCC1)CO2 (stereo not shown) [Compound 59, 3-{cyclobutyl[3-(5-fluoro-1H-indol-3-yl)propyl]amino}-8-fluoro-N-methylchromane-5-carboxamide]	5.05 nM	0%	5.35 nM	812 nM	100%	166 nM	–	–	–	–	–
–	–	–	CCNC(=O)c1ccc(F)c2c1CC(N(CCCc1c[nH]c3ccc(F)cc13)C1CCC1)CO2 (stereo not shown) [Compound 60, 3-{cyclobutyl[3-(5-fluoro-1H-indol-3-yl)propyl]amino}-N-ethyl-8-fluorochromane-5-carboxamide]	4.86 nM	0%	17.8 nM	1400 nM	100%	116 nM	–	–	–	–	–
–	–	–	CCCNC(=O)c1ccc(F)c2c1CC(N(CCCc1c[nH]c3ccc(F)cc13)C1CCC1)CO2 (stereo not shown) [Compound 61, 3-{cyclobutyl[3-(5-fluoro-1H-indol-3-yl)propyl]amino}-8-fluoro-N-propylchromane-5-carboxamide]	2.4 nM	–	195 nM	800 nM	–	593 nM	0%	–	–	–	–
–	–	–	CC(C)NC(=O)c1ccc(F)c2c1CC(N(CCCc1c[nH]c3ccc(F)cc13)C1CCC1)CO2 (stereo not shown) [Compound 63, 3-{cyclobutyl[3-(5-fluoro-1H-indol-3-yl)propyl]amino}-8-fluoro-N-isopropylchromane-5-carboxamide]	3.56 nM	0%	46.1 nM	2170 nM	76%	449 nM	–	–	–	–	–
–	–	–	O=C(NC1CC1)c1ccc(F)c2c1CC(N(CCCc1c[nH]c3ccc(F)cc13)C1CCC1)CO2 (stereo not shown) [Compound 64, 3-{cyclobutyl[3-(5-fluoro-1H-indol-3-yl)propyl]amino}-N-cyclopropyl-8-fluorochromane-5-carboxamide]	4.89 nM	0%	19.2 nM	395 nM	90%	288 nM	–	–	–	–	–
–	–	–	O=C(NC1CCC1)c1ccc(F)c2c1CC(N(CCCc1c[nH]c3ccc(F)cc13)C1CCC1)CO2 (stereo not shown) [Compound 65, N-cyclobutyl-3-{cyclobutyl[3-(5-fluoro-1H-indol-3-yl)propyl]amino}-8-fluorochromane-5-carboxamide]	3.98 nM	0%	214 nM	91.5 nM	48%	358 nM	–	–	–	–	–
–	–	–	CCCCN(CCCc1c[nH]c2ccc(F)cc12)C1COc2c(F)ccc(C(N)=O)c2C1 (stereo not shown) [Compound 72, 3-{butyl[3-(5-fluoro-1H-indol-3-yl)propyl]amino}-8-fluorochromane-5-carboxamide]	52.5 nM	0%	38.8 nM	3250 nM	43%	–	–	–	–	–	–
–	–	–	CN(C)C(=O)c1ccc(F)c2c1CC(N(CCCc1c[nH]c3ccc(F)cc13)C1CCC1)CO2 (stereo not shown) [Compound 73, 3-{cyclobutyl[3-(5-fluoro-1H-indol-3-yl)propyl]amino}-8-fluoro-N,N-dimethylchromane-5-carboxamide]	28.8 nM	0%	372 nM	5730 nM	40%	155 nM	–	–	–	–	–
–	–	–	CCN(CCc1c[nH]c2ccc(F)cc12)C1COc2c(F)ccc(C(N)=O)c2C1 (stereo not shown) [Compound 76, 3-{ethyl[2-(5-fluoro-1H-indol-3-yl)ethyl]amino}-8-fluorochromane-5-carboxamide]	–	0%	–	–	68%	–	–	52 nM	470 nM	68.2 nM	31.3 nM
–	–	–	CCCN(CCc1c[nH]c2ccc(F)cc12)C1COc2c(F)ccc(C(N)=O)c2C1 (stereo not shown) [Compound 77, 8-fluoro-3-[[2-(5-fluoro-1H-indol-3-yl)ethyl](propyl)amino]chromane-5-carboxamide]	60.5 nM	0%	18 nM	2570 nM	100%	68.3 nM	–	–	–	–	–
–	–	–	NC(=O)c1ccc(F)c2c1CC(N(CCc1c[nH]c3ccc(F)cc13)CC1CC1)CO2 (stereo not shown) [Compound 78, 3-{(cyclopropylmethyl)[2-(5-fluoro-1H-indol-3-yl)ethyl]amino}-8-fluorochromane-5-carboxamide]	83 nM	0%	6.6 nM	384 nM	100%	97.1 nM	–	–	–	–	–
–	–	–	CCN(CCCCc1c[nH]c2ccc(F)cc12)C1COc2c(F)ccc(C(N)=O)c2C1 (stereo not shown) [Compound 80, 3-{ethyl[4-(5-fluoro-1H-indol-3-yl)butyl]amino}-8-fluorochromane-5-carboxamide]	0.15 nM	0%	312 nM	1000 nM	100%	1370 nM	–	–	–	–	–
–	–	–	CCCN(CCCCc1c[nH]c2ccc(F)cc12)C1COc2c(F)ccc(C(N)=O)c2C1 (stereo not shown) [Compound 81, 8-fluoro-3-[[4-(5-fluoro-1H-indol-3-yl)butyl](propyl)amino]chromane-5-carboxamide]	6.15 nM	0%	4.64 nM	775 nM	100%	125 nM	–	–	–	–	–
–	–	–	NC(=O)c1ccc(F)c2c1CC(N(CCCCc1c[nH]c3ccc(F)cc13)CC1CC1)CO2 (stereo not shown) [Compound 82, 3-{(cyclopropylmethyl)[4-(5-fluoro-1H-indol-3-yl)butyl]amino}-8-fluorochromane-5-carboxamide]	3.51 nM	0%	1.64 nM	162 nM	100%	51.1 nM	–	–	–	–	–
–	–	–	NC(=O)c1ccc(F)c2c1CC(N(CCCCc1c[nH]c3ccc(F)cc13)C1CCC1)CO2 (stereo not shown) [Compound 83, 3-{cyclobutyl[4-(5-fluoro-1H-indol-3-yl)butyl]amino}-8-fluorochromane-5-carboxamide]	14.6 nM	0%	4.8 nM	351 nM	100%	23.6 nM	–	–	–	–	–
–	–	–	NC(=O)c1ccc(F)c2c1C[C@@H](N(CCCCc1c[nH]c3ccc(F)cc13)C1CCC1)CO2 [Compound 83a, (3R)-3-{cyclobutyl[4-(5-fluoro-1H-indol-3-yl)butyl]amino}-8-fluorochromane-5-carboxamide]	13.2 nM	0%	3.43 nM	505 nM	100%	173 nM	–	–	–	–	–
–	–	–	NC(=O)c1ccc(F)c2c1C[C@H](N(CCCCc1c[nH]c3ccc(F)cc13)C1CCC1)CO2 [Compound 83b, (3S)-3-{cyclobutyl[4-(5-fluoro-1H-indol-3-yl)butyl]amino}-8-fluorochromane-5-carboxamide]	16.9 nM	0%	111 nM	2500 nM	100%	5800 nM	–	–	–	–	–
–	–	–	CNC(=O)c1ccc(F)c2c1CC(N(CCc1c[nH]c3ccc(F)cc13)CC1CC1)CO2 (stereo not shown) [Compound 86, 3-{(cyclopropylmethyl)[2-(5-fluoro-1H-indol-3-yl)ethyl]amino}-8-fluoro-N-methylchromane-5-carboxamide]	70 nM	0%	8.82 nM	773 nM	100%	229 nM	–	–	–	–	–

Reference: patent US20050032873A1, “3-Amino chroman and 2-amino tetralin derivatives” (Wyeth, priority 2003, published 2005)
